ChEMBL document CHEMBL4007451, “The 2014 Philip S. Portoghese Medicinal Chemistry Lectureship: The "Phenylalkylaminome" with a Focus on Selected Drugs of Abuse” (J Med Chem, 2017)

Legend:
[1] = organism: Rattus norvegicus; test: Induction of stimulus generalization in Sprague-Dawley rat trained to discriminate S(-)MCAT assessed as appropriate responding level to training drug by two lever method; assay type: functional
[2] = organism: Rattus norvegicus; test: Induction of stimulus generalization in rat trained to discriminate S(+)methamphetamine assessed as appropriate responding level to training drug by two lever method; assay type: functional
[3] = organism: Rattus norvegicus; test: Induction of stimulus generalization in Sprague-Dawley rat trained to discriminate S(+)AMPH assessed as appropriate responding level to training drug by two lever method; assay type: functional
[4] = organism: Rattus norvegicus; test: Induction of stimulus generalization in rat trained to discriminate PMMA assessed as appropriate responding level to training drug by two lever method; assay type: functional; conditions: for ED50: Rattus norvegicus
[5] = organism: Rattus norvegicus; test: Induction of stimulus generalization in rat trained to discriminate MDMA assessed as appropriate responding level to training drug by two lever method; assay type: functional; conditions: for ED50: Rattus norvegicus
[6] = organism: Rattus norvegicus; test: Induction of stimulus generalization in Sprague-Dawley rat trained to discriminate rac-cathinone assessed as appropriate responding level to training drug by two lever method; assay type: functional
[7] = organism: Rattus norvegicus; test: Induction of stimulus generalization in rat trained to discriminate (+)amphetamine assessed as appropriate responding level to training drug by two lever method; assay type: functional
[8] = Displacement of [3H]DTG from sigma receptor (unknown origin); set-up: species or system Homo sapiens
[9] = target: Sigma non-opioid intracellular receptor 1 (Cavia porcellus, UniProt Q60492); test: Displacement of (+)-[3H]pentazocine from guinea pig brain membrane sigma1 receptor by scintillation spectrometric method
[10] = organism: Rattus norvegicus; test: Induction of stimulus generalization in Sprague-Dawley rat trained to discriminate MDMA assessed as appropriate responding level to training drug by two lever method; assay type: functional; conditions: Rattus norvegicus, Sprague-Dawley
[11] = organism: Rattus norvegicus; test: Induction of stimulus generalization in Sprague-Dawley rat trained to discriminate alpha-ET assessed as appropriate responding level to training drug by two lever method; assay type: functional; conditions: Rattus norvegicus, Sprague-Dawley
[12] = organism: Rattus norvegicus; test: Induction of stimulus generalization in Sprague-Dawley rat trained to discriminate PMMA assessed as appropriate responding level to training drug by two lever method; assay type: functional
[13] = target: 5-hydroxytryptamine receptor 2A (Rattus norvegicus, UniProt P14842); test: Displacement of [125I](+/-)DOI from rat 5HT2A after 1 hr by beta scintillation counting method
[14] = target: Sodium-dependent dopamine transporter (Rattus norvegicus, UniProt P23977); test: Activity at DAT in rat synaptosomes assessed as release of [3H]DA after 5 mins by liquid scintillation counting method; assay type: subcellular
[15] = Activity at NET in rat synaptosomes assessed as release of [3H]NE after 30 mins by liquid scintillation counting method; assay type: subcellular
[16] = target: Sodium-dependent serotonin transporter (Rattus norvegicus, UniProt P31652); test: Activity at SERT in rat synaptosomes assessed as release of [3H]HT after 5 mins by liquid scintillation counting method; assay type: subcellular
[17] = organism: Rattus norvegicus; test: Induction of stimulus generalization in rat trained to discriminate (-)ephedrine assessed as appropriate responding level to training drug by two lever method; assay type: functional
[18] = organism: Rattus norvegicus; test: Induction of stimulus generalization in rat trained to discriminate DOM assessed as appropriate responding level to training drug by two lever method; assay type: functional
[19] = organism: Rattus norvegicus; test: Induction of stimulus generalization in Sprague-Dawley rat trained to discriminate DOM assessed as appropriate responding level to training drug by two lever method; assay type: functional; conditions: Rattus norvegicus, Sprague-Dawley
[20] = organism: Rattus norvegicus; test: Induction of stimulus generalization in Sprague-Dawley rat trained to discriminate AMPH assessed as appropriate responding level to training drug by two lever method; assay type: functional
[21] = target: 5-hydroxytryptamine receptor 2A (Homo sapiens, UniProt P28223); test: Displacement of [125I]DOI from recombinant human 5HT2A expressed in Syrian hamster AV12 cell membranes
[22] = system: Mus musculus; test: Anxiolytic-like activity in iv dosed ICR mouse assessed as increase in marbles left uncovered measured after 30 mins by marble burying assay; assay type: functional; conditions: 0.5 h
[23] = target: Sodium-dependent serotonin transporter (Homo sapiens, UniProt P31645); test: Activity at SERT (unknown origin) assessed as release of [3H]HT
[24] = organism: Homo sapiens; test: Selectivity ratio of EC50 for SERT (unknown origin) assessed as release of [3H]HT to EC50 for DAT (unknown origin) by [3H]DA release assay
[25] = target: Sodium-dependent dopamine transporter (Homo sapiens, UniProt Q01959); test: Activity at DAT (unknown origin) assessed as release of [3H]DA
[26] = Displacement of [3H]ketanserin from rat brain 5HT2 receptor
[27] = target: T1, 5-hydroxytryptamine receptor 1A (Rattus norvegicus, UniProt P19327); test: Displacement of [3H]-8-OH-DPAT from 5-HT1A receptor in Sprague-Dawley rat cortex membranes after 15 mins by liquid scintillation spectrometric method; assay type: cell membranes
T1 sequence (P19327 whole entry): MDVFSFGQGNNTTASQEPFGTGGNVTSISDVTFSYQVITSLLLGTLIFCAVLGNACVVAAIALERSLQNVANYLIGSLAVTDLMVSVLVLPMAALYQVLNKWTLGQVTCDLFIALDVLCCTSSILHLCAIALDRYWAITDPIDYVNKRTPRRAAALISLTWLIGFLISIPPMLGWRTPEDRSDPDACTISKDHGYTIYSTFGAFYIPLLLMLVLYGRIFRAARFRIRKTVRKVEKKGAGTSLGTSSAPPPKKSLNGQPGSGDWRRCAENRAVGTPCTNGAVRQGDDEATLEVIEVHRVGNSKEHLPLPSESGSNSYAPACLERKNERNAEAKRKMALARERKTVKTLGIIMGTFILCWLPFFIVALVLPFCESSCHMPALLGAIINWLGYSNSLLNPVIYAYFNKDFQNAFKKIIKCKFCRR

Chain of Sodium-dependent serotonin transporter (Rattus norvegicus, UniProt P31652) (P31652 whole entry): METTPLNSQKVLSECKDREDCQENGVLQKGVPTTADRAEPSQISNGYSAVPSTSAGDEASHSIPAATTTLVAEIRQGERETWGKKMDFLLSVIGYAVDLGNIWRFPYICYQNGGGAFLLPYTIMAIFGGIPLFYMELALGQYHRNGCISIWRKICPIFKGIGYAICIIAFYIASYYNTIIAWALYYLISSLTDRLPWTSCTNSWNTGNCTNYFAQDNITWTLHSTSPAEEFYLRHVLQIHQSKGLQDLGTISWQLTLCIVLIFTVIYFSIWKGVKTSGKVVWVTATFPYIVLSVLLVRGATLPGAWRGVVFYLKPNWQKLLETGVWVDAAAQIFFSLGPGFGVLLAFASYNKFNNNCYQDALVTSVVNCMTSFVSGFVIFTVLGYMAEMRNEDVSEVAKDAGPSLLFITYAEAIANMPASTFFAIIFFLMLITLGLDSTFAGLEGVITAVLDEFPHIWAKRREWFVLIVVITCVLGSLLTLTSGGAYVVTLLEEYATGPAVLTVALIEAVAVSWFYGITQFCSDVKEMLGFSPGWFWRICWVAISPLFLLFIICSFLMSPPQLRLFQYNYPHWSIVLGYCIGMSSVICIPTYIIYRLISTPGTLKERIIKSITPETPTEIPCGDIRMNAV
Chain of Sodium-dependent dopamine transporter (Rattus norvegicus, UniProt P23977) (P23977 whole entry): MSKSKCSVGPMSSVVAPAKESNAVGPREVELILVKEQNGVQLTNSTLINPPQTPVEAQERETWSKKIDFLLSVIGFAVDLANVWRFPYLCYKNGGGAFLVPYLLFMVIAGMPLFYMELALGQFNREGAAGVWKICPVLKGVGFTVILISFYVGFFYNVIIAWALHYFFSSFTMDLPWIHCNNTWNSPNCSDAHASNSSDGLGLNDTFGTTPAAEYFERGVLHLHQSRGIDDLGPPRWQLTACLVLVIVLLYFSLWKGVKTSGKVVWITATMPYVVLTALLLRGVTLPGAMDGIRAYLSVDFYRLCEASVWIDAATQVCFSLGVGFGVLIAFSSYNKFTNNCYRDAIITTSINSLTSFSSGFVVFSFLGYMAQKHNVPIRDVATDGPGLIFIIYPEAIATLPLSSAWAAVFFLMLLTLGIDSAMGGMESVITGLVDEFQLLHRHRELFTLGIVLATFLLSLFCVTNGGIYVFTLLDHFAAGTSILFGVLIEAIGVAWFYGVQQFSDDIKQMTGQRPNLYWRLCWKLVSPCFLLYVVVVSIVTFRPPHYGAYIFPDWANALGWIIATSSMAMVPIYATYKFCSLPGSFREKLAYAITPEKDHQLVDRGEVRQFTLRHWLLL
Chain of Sigma non-opioid intracellular receptor 1 (Q60492 whole entry): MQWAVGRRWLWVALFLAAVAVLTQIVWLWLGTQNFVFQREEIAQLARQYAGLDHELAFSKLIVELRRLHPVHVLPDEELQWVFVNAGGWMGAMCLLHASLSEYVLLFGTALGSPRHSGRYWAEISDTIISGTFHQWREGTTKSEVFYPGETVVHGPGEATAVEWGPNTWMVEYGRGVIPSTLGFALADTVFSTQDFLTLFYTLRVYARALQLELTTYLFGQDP
Chain of Sodium-dependent serotonin transporter (Homo sapiens, UniProt P31645) (P31645 whole entry): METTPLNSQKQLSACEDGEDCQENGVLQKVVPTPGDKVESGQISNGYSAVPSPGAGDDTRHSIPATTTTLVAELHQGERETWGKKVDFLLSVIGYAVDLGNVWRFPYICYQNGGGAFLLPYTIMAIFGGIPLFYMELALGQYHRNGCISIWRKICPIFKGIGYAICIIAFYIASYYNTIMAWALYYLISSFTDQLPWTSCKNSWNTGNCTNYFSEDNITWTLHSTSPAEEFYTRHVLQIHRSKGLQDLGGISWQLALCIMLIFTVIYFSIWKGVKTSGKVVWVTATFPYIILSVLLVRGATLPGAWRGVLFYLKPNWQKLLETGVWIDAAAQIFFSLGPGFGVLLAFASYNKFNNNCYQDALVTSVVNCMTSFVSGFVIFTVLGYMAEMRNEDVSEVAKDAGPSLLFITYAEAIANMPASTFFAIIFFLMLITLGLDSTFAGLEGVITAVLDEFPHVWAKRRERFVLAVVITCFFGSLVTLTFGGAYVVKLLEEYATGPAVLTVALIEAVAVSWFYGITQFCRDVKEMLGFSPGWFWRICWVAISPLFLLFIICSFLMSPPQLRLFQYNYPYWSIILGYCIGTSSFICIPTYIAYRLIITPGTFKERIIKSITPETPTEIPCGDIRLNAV
Chain of 5-hydroxytryptamine receptor 2A (Rattus norvegicus, UniProt P14842) (P14842 whole entry): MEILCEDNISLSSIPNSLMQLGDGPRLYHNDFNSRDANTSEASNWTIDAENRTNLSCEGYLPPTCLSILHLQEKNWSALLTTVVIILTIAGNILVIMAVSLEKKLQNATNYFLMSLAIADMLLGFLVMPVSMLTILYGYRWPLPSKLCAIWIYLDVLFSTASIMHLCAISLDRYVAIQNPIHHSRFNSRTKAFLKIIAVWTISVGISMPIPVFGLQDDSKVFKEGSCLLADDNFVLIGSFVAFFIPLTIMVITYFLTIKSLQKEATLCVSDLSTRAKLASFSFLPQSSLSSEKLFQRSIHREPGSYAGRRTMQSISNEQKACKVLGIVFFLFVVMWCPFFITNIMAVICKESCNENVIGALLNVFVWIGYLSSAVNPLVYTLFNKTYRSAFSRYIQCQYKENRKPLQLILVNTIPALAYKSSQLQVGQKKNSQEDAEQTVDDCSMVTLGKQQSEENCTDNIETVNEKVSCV
Chain of 5-hydroxytryptamine receptor 2A (Homo sapiens, UniProt P28223) (P28223 whole entry): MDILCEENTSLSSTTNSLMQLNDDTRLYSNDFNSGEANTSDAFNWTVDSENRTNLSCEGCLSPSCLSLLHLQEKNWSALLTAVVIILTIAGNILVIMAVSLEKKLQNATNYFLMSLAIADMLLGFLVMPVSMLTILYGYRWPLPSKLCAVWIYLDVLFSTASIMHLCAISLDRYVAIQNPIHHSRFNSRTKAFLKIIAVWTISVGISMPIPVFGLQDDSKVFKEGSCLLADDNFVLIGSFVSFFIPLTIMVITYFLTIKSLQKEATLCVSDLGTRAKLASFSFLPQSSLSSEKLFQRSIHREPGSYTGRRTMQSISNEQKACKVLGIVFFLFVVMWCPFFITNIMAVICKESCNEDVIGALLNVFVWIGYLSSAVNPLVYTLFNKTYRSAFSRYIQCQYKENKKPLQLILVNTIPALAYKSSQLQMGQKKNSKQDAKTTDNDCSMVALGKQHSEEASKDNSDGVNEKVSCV
Chain of Sodium-dependent dopamine transporter (Homo sapiens, UniProt Q01959) (Q01959 whole entry): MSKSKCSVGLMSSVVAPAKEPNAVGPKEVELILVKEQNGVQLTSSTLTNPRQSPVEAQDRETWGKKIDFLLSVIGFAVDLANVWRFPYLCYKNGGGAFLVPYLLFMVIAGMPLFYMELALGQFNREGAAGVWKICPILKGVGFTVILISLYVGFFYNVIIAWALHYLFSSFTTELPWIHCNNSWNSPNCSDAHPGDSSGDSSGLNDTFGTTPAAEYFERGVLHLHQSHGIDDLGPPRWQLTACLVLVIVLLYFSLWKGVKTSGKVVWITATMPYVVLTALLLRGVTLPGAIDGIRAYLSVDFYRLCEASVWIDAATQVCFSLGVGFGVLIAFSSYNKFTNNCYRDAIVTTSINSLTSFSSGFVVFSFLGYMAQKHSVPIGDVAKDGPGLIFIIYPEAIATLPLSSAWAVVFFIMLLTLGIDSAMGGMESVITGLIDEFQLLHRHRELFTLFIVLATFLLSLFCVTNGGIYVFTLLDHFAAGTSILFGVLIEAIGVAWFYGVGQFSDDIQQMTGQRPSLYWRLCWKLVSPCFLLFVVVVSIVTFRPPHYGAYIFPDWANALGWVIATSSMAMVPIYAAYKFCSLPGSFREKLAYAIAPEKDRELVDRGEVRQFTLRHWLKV

Molecule CN[C@@H](C)Cc1ccccc1 [METHAMPHETAMINE] has an ED50 [1] of 0.17 mg/kg, an ED50 [2] of 0.06 mg/kg and an ED50 [3] of 0.2 mg/kg.

COc1ccc(C[C@H](C)N)cc1OC gave an ED50 [4] of 2.6 mg/kg and an ED50 [5] of 6.1 mg/kg.

With C[C@H](N)C(=O)c1ccccc1 [CATHINONE] the ED50 [6] was 0.22 mg/kg, the ED50 [7] was 0.32 mg/kg and the ED50 [1] was 0.17 mg/kg. For the same molecule, the ED50 [3] was 0.34 mg/kg.

C=CCN1CCC2(C)c3cc(O)ccc3CC1C2C (racemic) gave a Ki [8] of 430 nM.

Molecule C[C@@H](Cc1ccccc1)NCCCCCc1ccccc1 has a Ki [9] of 0.9 nM.

With CNC(C)Cc1ccc(OC)cc1 (centres undefined) the ED50 [10] was 0.2 mg/kg, the ED50 [11] was 0.7 mg/kg and the ED50 [12] was 0.4 mg/kg.

In the case of COc1cc([C@H](OC)[C@@H](C)N)c(OC)cc1Br, the Ki [13] is reported as 17.4 nM.

Molecule CC(N)Cc1ccc2c(c1)OCO2 (racemic) [TENAMFETAMINE] has an EC50 [14] of 190 nM, an ED50 [4] of 0.5 mg/kg and an EC50 [15] of 108 nM. It also gave an EC50 [16] of 160 nM.

For COc1cccc(C[C@@H](C)N)c1, the Activity [4] was 20 - 80% and the ED50 [5] was 1.4 mg/kg.

For COc1ccc(C[C@@H](C)N)cc1, the ED50 [4] was 0.4 mg/kg and the Activity [5] was under 20%.

CN[C@H](C)Cc1ccccc1 gave an ED50 [17] of 0.9 mg/kg and an ED50 [2] of 1.61 mg/kg.

In the case of C[C@@H](N)C(=O)c1ccccc1, the ED50 [6] is reported as 0.72 mg/kg and the ED50 [7] is reported as 4.41 mg/kg.

Work on C[C@@H](N)Cc1ccc2c(c1)OCO2 yielded an EC50 [14] of 900 nM, an ED50 [4] of 1.5 mg/kg and an EC50 [15] of 290 nM. The EC50 [16] was 310 nM.

For C[C@H](N)[C@@H](O)c1ccccc1 [CATHINE], the ED50 [6] was 1.61 mg/kg.

Work on CC(Cc1ccccc1)NCCCCCc1ccccc1 (centres undefined) yielded a Ki [8] of 6.3 nM.

With CCC(N)Cc1c[nH]c2ccccc12 (racemic) [ETRYPTAMINE] the ED50 [18] was 6.6 mg/kg, the ED50 [10] was 3.5 mg/kg and the ED50 [19] was 6.6 mg/kg. The ED50 [11] was 1.3 mg/kg and the Activity [20] was 20 - 80%.

In the case of CC(N)C(=O)c1ccccc1 (racemic) [DEALKYLATED DIETHYLPROPION], the ED50 [7] is reported as 0.72 mg/kg.

CC[C@H](N)Cc1c[nH]c2ccccc12 showed an EC50 [14] of 64 nM, an EC50 [15] of over 10000 nM and an ED50 [10] of 2 mg/kg. For the same molecule, the ED50 [19] was 2.7 mg/kg, the ED50 [11] was 1.3 mg/kg and the Activity [20] was 53%. It also gave an ED50 [12] of 1.4 mg/kg and an EC50 [16] of 20 nM.

CN[C@@H](C)C(=O)c1ccccc1 showed an EC50 [14] of 14.8 nM, an EC50 [15] of 13.1 nM and an ED50 [1] of 0.11 mg/kg. The ED50 [2] was 0.21 mg/kg, the EC50 [16] was 1770 nM and the ED50 [3] was 0.18 mg/kg.

CCNC(C)Cc1cccc(C(F)(F)F)c1 (centres undefined) [FENFLURAMINE] gave an EC50 [15] of 740 nM.

CCCNC(C)Cc1cc(OC)c(Br)cc1OC (centres undefined) gave a Ki [21] of 88.5 nM.

CN1C(=O)CN=C(c2ccccc2)c2cc(Cl)ccc21 [DIAZEPAM] showed an ED50 [22] of 0.26 mg/kg.

Work on COc1cc(CC(C)N)c(OC)cc1C (centres undefined) [DOM] yielded an ED50 [18] of 0.44 mg/kg, an ED50 [19] of 0.4 mg/kg and an ED50 [11] of 0.4 mg/kg.

In the case of c1ccc(CCCCCN2CCCCC2Cc2ccccc2)cc1 (centres undefined), the Ki [9] is reported as 0.08 nM.

For CNC(C)C(=O)c1ccccc1 (centres undefined), the EC50 [23] was 3860 nM, the Ratio EC50 [24] was over 200 and the EC50 [25] was 12.5 nM.

CNC(C)Cc1ccc2c(c1)OCO2 (racemic) [MIDOMAFETAMINE] gave an EC50 [14] of 278 nM, an ED50 [4] of 1.32 mg/kg and an EC50 [15] of 110 nM. The EC50 [16] was 72 nM.

C[C@@H](N)Cc1c[nH]c2ccccc12 showed a Ki [26] of 5000 nM.

For CCCCN(CCCC)[C@@H]1CCc2cccc(O)c2C1, the Ki [27] was 109 nM.
